From patent US6001359A, “Diagnosis of colon carcinoma using monoclonal antibodies to human influx peptide transporter” (Eli Lilly and Company, priority 1997, dated 1999)

Tests used:
[1] = biological target: T1, influx peptide transporter (Homo sapiens, UniProt Q12864); assay: [14C]cephalexin uptake by CHO-K1 transfectant Clone 9 (plasmid pPSJ179); assay type: cell-based
T1 construct: about 120 kDa antigen of MAb PTC13G6
T1 sequence (Q12864 23-832): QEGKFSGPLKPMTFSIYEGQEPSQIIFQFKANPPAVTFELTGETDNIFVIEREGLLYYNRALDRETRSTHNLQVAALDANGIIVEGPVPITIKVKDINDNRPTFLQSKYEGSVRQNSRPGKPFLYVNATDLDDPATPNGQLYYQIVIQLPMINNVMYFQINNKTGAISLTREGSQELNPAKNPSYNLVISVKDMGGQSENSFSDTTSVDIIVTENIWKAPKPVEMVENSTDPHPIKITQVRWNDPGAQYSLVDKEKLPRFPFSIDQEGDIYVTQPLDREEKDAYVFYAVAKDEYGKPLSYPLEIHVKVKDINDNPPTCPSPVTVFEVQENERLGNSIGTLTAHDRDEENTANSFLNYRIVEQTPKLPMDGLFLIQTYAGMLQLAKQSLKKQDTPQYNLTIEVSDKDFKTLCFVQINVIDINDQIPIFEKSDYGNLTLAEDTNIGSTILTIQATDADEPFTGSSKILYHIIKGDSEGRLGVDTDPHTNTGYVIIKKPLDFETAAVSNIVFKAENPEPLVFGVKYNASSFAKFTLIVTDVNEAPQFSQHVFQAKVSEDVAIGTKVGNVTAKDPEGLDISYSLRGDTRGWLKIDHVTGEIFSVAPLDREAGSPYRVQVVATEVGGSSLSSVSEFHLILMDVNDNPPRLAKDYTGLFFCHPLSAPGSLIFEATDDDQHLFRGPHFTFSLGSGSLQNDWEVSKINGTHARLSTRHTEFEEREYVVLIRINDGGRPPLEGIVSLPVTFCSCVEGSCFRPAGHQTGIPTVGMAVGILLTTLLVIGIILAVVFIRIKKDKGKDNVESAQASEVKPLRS
Description: (§1) The samples were incubated at room temperature for 20 minutes.

CHO-K1 cells = assay: [14C]cephalexin uptake by control CHO-K1 cells (plasmid pRc/RSV); assay type: cell-based, Chinese hamster
Description: as §1

## CC(C)C[C@H](NC(=O)[C@@H](O)[C@H](N)Cc1ccccc1)C(=O)O [bestatin]
[1]; 1 mM [14C]cephalexin + 15 mM bestatin
  [14C]-Cephalexin Uptake in presence of bestatin: 0.42 ± 0.08 nmol/mg total cell protein
[1]; 15 mM bestatin or 25 mM unlabelled cephalexin
  effect on uptake of 1 mM cephalexin by the transfectant: inhibited
[1]; coincubation with 1 mM [14C]cephalexin
  drug uptake on coincubation, compared with control cells: decreased drug uptake in the representative transfectant (Clone 9) to the level of the control cells
CHO-K1 cells; Control cells, 1 mM [14C]cephalexin + 15 mM bestatin
  [14C]-Cephalexin Uptake in presence of bestatin: 0.38 ± 0.08 nmol/mg total cell protein
CHO-K1 cells; control cells, bestatin or cephalexin
  effect on transport of 1 mM [14C]cephalexin by the control cells: not inhibited significantly
